Data on 20 compounds can be found in patent US20250346573A1, “AZAQUINOLINONE DERIVATIVE, PREPARATION METHOD THEREFOR AND USE THEREOF” (CHENGDU EASTON BIOPHARMACEUTICALS CO., LTD., priority 2022, published 2025).

The test system of data set [1] is BRCA1-mutated HCC1395 cells. Briefly: Proliferation inhibitory test of BRCA1-mutated HCC1395 cells (CCK-8). In kind it is cell-based. Particulars: Homo sapiens, 120 h, 5 days, read-out: IC50 (nM), inhibitory activity against BRCA1-mutated HCC1395 cells. The method, then:
CCK-8 was used to measure the content of mitochondrial dehydrogenase in cells at different drug concentrations, and the luminescence intensity was used to reflect the cell activity. The IC50 values of different compounds on BRCA1-mutated HCC1395 cells were calculated using the survival rate, and the proliferation inhibitory effect of the compounds of the present disclosure on BRCA1-mutated HCC1395 cells was studied to evaluate the anti-tumor efficacy of the test compounds at the cellular level.
(§1) On Day −1, the cells were inoculated into the 96-well cell culture plate at a fixed cell density and then placed in the 5% CO2 cell incubator for culture overnight at 37° C.
(§2) On Day 0, the compound to be tested was prepared into a 10 mM stock solution and diluted into 9 concentration points at the concentration of 1,000 nM, 300 nM, 100 nM, 30 nM, 10 nM, 3 nM, 1 nM, 0.3 nM and 0.1 nM in two duplicated wells. A fixed volume of the diluted compound was added to the 96-well cell culture plate and then placed in the 5% CO2 cell incubator for culture at 37° C. for 5 days.
(§3) On Day 5, a fixed volume of CCK-8 was added to the 96-well cell culture plate and incubated in the 5% CO2 cell incubator at 37° C. for 1.5 h, and the plate was read by a chemiluminescence module of the multifunctional microplate reader.
With the logarithmic value of the concentration as an X axis and the survival percentage as a Y axis, a dose-effect curve was fitted by using a log(inhibitor) vs. response-Variable slop (Four parameters) formula of the analysis software Graphpad Prism 9, thereby obtaining the IC50 value of the anti-proliferation inhibitory activity of each compound against BRCA1-mutated HCC1395 cells.

For data set [2], the system named is BRCA1-mutated MDA-MB-436 cells. Briefly: Proliferation inhibitory test of BRCA1-mutated MDA-MB-436 cells (CCK-8). In kind it is cell-based. As to conditions: Homo sapiens, 120 h, 5 days, read-out: IC50 (nM), inhibitory activity against BRCA1-mutated MDA-MB-436 cells. The method, then: CCK-8 was used to measure the content of mitochondrial dehydrogenase in cells at different drug concentrations, and the luminescence intensity was used to reflect the cell activity. The IC50 values of different compounds on BRCA1-mutated MDA-MB-436 cells were calculated using the survival rate, and the proliferation inhibitory effect of the compounds of the present disclosure on BRCA1-mutated MDA-MB-436 cells was studied to evaluate the anti-tumor efficacy of the test compounds at the cellular level.
as §1, §2, §3
With the logarithmic value of the concentration as an X axis and the survival percentage as a Y axis, a dose-effect curve was fitted by using a log(inhibitor) vs. response-Variable slop (Four parameters) formula of the analysis software Graphpad Prism 9, thereby obtaining the IC50 value of the anti-proliferation inhibitory activity of each compound against BRCA1-mutated MDA-MB-436 cells.

A short description of data set [3]: Study on pharmacokinetics of rats (oral gavage, plasma LC-MS/MS). Type of data set: in vivo. Particulars: female SD rats; for AUC(0-t) / Cmax / half-life: rat. The method, then:
With SD rats as test animals, the plasma concentration in the plasma of rats at different time points after oral administration of the compounds of the present application was determined by an LC-MS/MS method. Pharmacokinetic parameters of the compounds of the present application in rats were obtained to study pharmacokinetic characteristics.
SD rats, female, body weight 180-220 g, 3 rats per group. After being purchased, the animals were fed in an animal house for an adaptation period of at least 3 days and then used for testing after passing quarantine.
3.1. Grouping: The SD rats were randomly grouped according to Table 4, which had no statistical difference in the body weight between groups after grouping.
3.2. Vehicle: 10% DMSO and 90% (20% SBE-β-CD in saline).
According to Table 4, each compound was prepared into a clear solution with the vehicle, respectively, and each group was administered by gavage with the corresponding test drug. Before administration, and at 15 min, 30 min, 1 h, 2 h, 4 h, 6 h, 8 h and 24 h after the administration, a fixed volume of blood was collected through sinuses jugularis, placed in an EDTA-K2 anticoagulant tube, and centrifuged at 4,000 rpm for 10 min to separate the plasma in a centrifuge tube. The plasma was frozen in a refrigerator at −80° C.
The plasma stored at −80° C. at each time point was taken out, and a fixed volume of acetonitrile was added thereto. After being vortexed at 1,500 rpm for 2 min, it was centrifuged for 15 min (3,500 r/min). A fixed volume of solution supernatant was taken for LC-MS/MS analysis.
The pharmacokinetic behaviors of the test compounds were fitted with a non-compartmental model, and the main pharmacokinetic parameters were calculated using DAS3.31 software.

A word on the IC50: it is the concentration at which inhibition is half-maximal. What is called AUC(0-t) is the area under the concentration-time curve up to a stated or last time point. High values mean more exposure, low ones less exposure. A word on the Cmax: it is the maximum level reached in the sampled fluid or tissue. One may read the half-life as how long it takes for the measured level to halve.

With `Cc1nc(C(=O)NCC(F)F)ccc1N1CCN(Cc2cc(F)c3nc(C)c(=O)[nH]c3c2)CC1` [Compound 28, N-(2,2-difluoroethyl)-5-(4-((8-fluoro-2-methyl-3-oxo-3,4-dihydroquinoxalin-6-yl)methyl)piperazin-1-yl)-6-methylpicolinamide], the half-inhibitory concentration (IC50) came out at 2.03 nM in data set [1] and 4.53 nM in data set [2]. On to `CCc1nc2c(F)cc(CN3CCN(c4ccc(C(=O)NCCO)nc4C)CC3)cc2[nH]c1=O` [Compound 31, 5-(4-((2-ethyl-8-fluoro-3-oxo-3,4-dihydroquinoxalin-6-yl)methyl)piperazin-1-yl)-N-(2-hydroxyethyl)-6-methylpicolinamide], for which the IC50 in data set [2] turned out to be 8.77 nM. The same measure, in the same setting: the figure for `CNC(=O)c1ccc(N2CCN(Cc3cc(C)c4nc(C)c(=O)[nH]c4c3)CC2)c(C)n1` [Compound 10, 5-(4-((2,8-dimethyl-3-oxo-3,4-dihydroquinoxalin-6-yl)methyl)piperazin-1-yl)-N,6-dimethylpicolinamide] is 3.63 nM.

With `CNC(=O)c1ccc(N2CCN(Cc3cc4[nH]c(=O)c(C)nc4c(F)c3F)CC2)c(C)n1` [Compound 9, 5-(4-((7,8-difluoro-2-methyl-3-oxo-3,4-dihydroquinoxalin-6-yl)methyl)piperazin-1-yl)-N,6-dimethylpicolinamide], in data set [1], the IC50 was found to be 2.29 nM. Further, the IC50 in data set [2] stood at 5.84 nM. Moreover, in data set [3] (po. 10 mg/kg), the Cl_F_obs worked out at 0.5 mL/min/kg, the AUC(0-t) was determined as 340000 ng·h/mL, the peak level (Cmax) was 31900 ng/mL and the half-life was 7.74 h. Turning to `Cc1nc2c(C)cc(CN3CCN(c4ccc(C#N)c(F)c4)CC3)cc2[nH]c1=O` [Compound 19, 4-(4-((2,8-dimethyl-3-oxo-3,4-dihydroquinoxalin-6-yl)methyl)piperazin-1-yl)-2-fluorobenzonitrile], in data set [2], the IC50 worked out at 8.31 nM. With `CCc1cc2ncc(CN3CCN(c4ccc(C(=O)NC)nc4)CC3)cc2[nH]c1=O` [AZD5305, reference compound], the results for the IC50 in data set [1] and in data set [2] were 1.76 nM and 0.67 nM, respectively. As to `Cc1nc(C(=O)NCCF)ccc1N1CCN(Cc2cc(F)c3nc(C)c(=O)[nH]c3c2)CC1` [Compound 29, 5-(4-((8-fluoro-2-methyl-3-oxo-3,4-dihydroquinoxalin-6-yl)methyl)piperazin-1-yl)-N-(2-fluoroethyl)-6-methylpicolinamide], the IC50 in data set [2] was found to be 9.83 nM. Regarding `CNC(=O)c1ccc(N2CCN(Cc3cc(F)c4nc(C)c(=O)[nH]c4c3)CC2)c(C)n1` [Compound 6, 5-(4-((8-fluoro-2-methyl-3-oxo-3,4-dihydroquinoxalin-6-yl)methyl)piperazin-1-yl)-N,6-dimethylpicolinamide], in data set [1], the IC50 came to 2.45 nM. Besides, the IC50 in data set [2] amounted to 2.06 nM. Besides, in data set [3] (po. 10 mg/kg), the Cl_F_obs came to 2.17 mL/min/kg, the AUC(0-t) came to 72600 ng·h/mL, the peak level (Cmax) was 11300 ng/mL and the half-life is 6.07 h. `CNC(=O)c1ccc(N2CCN(Cc3cc(Cl)c4nc(C)c(=O)[nH]c4c3)CC2)c(C)n1` [Compound 51, 5-(4-((8-chloro-2-methyl-3-oxo-3,4-dihydroquinoxalin-6-yl)methyl)piperazin-1-yl)-N,6-dimethylpicolinamide]: the IC50 was determined as 1.31 nM in data set [1] and 1.05 nM in data set [2]. Take `CCc1nc2c(F)cc(CN3CCN(c4ccc(C(=O)NCCOC)nc4C)CC3)cc2[nH]c1=O` [Compound 34, 5-(4-((2-ethyl-8-fluoro-3-oxo-3,4-dihydroquinoxalin-6-yl)methyl)piperazin-1-yl)-N-(2-methoxyethyl)-6-methylpicolinamide]: the IC50 in data set [2] amounted to 5.87 nM. Moreover, in data set [3] (po. 3 mg/kg), the Cl_F_obs stood at 3 mL/min/kg, the AUC(0-t) amounted to 17000 ng·h/mL, the concentration peaked (Cmax) at 3230 ng/mL and the half-life was 5.2 h. For `CNC(=O)c1ccc(N2CCN(Cc3cc4[nH]c(=O)c(C)nc4c(F)c3F)CC2)cn1` [Compound 8, 5-(4-((7,8-difluoro-2-methyl-3-oxo-3,4-dihydroquinoxalin-6-yl)methyl)piperazin-1-yl)-N-methylpicolinamide], the IC50 in data set [2] was 11.1 nM.

For `CNC(=O)c1ccc(N2CCN(Cc3cc4[nH]c(=O)c(C)nc4cc3OC)CC2)c(C)n1` [Compound 41, 5-(4-((7-methoxy-2-methyl-3-oxo-3,4-dihydroquinoxalin-6-yl)methyl)piperazin-1-yl)-N,6-dimethylpicolinamide], in data set [2], the IC50 was found to be 6.49 nM. In the case of `CNC(=O)c1ccc(N2CCN(Cc3cc4[nH]c(=O)c(C)nc4cc3OC)CC2)c(Cl)n1` [Compound 37, 6-chloro-5-(4-((7-methoxy-2-methyl-3-oxo-3,4-dihydroquinoxalin-6-yl)methyl)piperazin-1-yl)-N-methylpicolinamide], the IC50 in data set [1] is 0.95 nM; in data set [2], 4.88 nM. Consider `CCc1nc2c(F)cc(CN3CCN(c4ccc(C(=O)NCCF)nc4C)CC3)cc2[nH]c1=O` [Compound 30, 5-(4-((2-ethyl-8-fluoro-3-oxo-3,4-dihydroquinoxalin-6-yl)methyl)piperazin-1-yl)-N-(2-fluoroethyl)-6-methylpicolinamide], for which the IC50 in data set [2] was determined as 5.94 nM. Same read-out and setting: the figure for `CCc1nc2c(F)cc(CN3CCN(c4ccc(C(=O)NCC5COC5)nc4C)CC3)cc2[nH]c1=O` [Compound 33, 5-(4-((2-ethyl-8-fluoro-3-oxo-3,4-dihydroquinoxalin-6-yl)methyl)piperazin-1-yl)-6-methyl-N-(oxetan-3-ylmethyl)picolinamide] is 6.91 nM; for `COCCNC(=O)c1ccc(N2CCN(Cc3cc(C)c4nc(C)c(=O)[nH]c4c3)CC2)c(C)n1` [Compound 22, 5-(4-((2,8-dimethyl-3-oxo-3,4-dihydroquinoxalin-6-yl)methyl)piperazin-1-yl)-N-(2-methoxyethyl)-6-methylpicolinamide] it is 6.95 nM; for `CNC(=O)c1ccc(N2CCN(Cc3cc(F)c4nc(C)c(=O)[nH]c4c3)CC2)c(Cl)n1` [Compound 7, 6-chloro-5-(4-((8-fluoro-2-methyl-3-oxo-3,4-dihydroquinoxalin-6-yl)methyl)piperazin-1-yl)-N-methylpicolinamide] it is 2.31 nM. As for `CCc1nc2c(F)cc(CN3CCN(c4ccc(C(=O)NC5COC5)nc4C)CC3)cc2[nH]c1=O` [Compound 42, 5-(4-((2-ethyl-8-fluoro-3-oxo-3,4-dihydroquinoxalin-6-yl)methyl)piperazin-1-yl)-6-methyl-N-(oxetan-3-yl)picolinamide], in data set [2], the half-inhibitory concentration (IC50) was found to be 4.02 nM. On the same count and under the same terms, the figure for `Cc1nc(C(=O)N[C@@H]2CCOC2)ccc1N1CCN(Cc2cc(F)c3nc(C)c(=O)[nH]c3c2)CC1` [Compound 46, (R)-5-(4-((8-fluoro-2-methyl-3-oxo-3,4-dihydroquinoxalin-6-yl)methyl)piperazin-1-yl)-6-methyl-N-(tetrahydrofuran-3-yl)picolinamide] is 8.38 nM; for `Cc1nc(C(=O)NCCF)ccc1N1CCN(Cc2cc3[nH]c(=O)c(C)nc3c(F)c2F)CC1` [Compound 54, 5-(4-((7,8-difluoro-2-methyl-3-oxo-3,4-dihydroquinoxalin-6-yl)methyl)piperazin-1-yl)-N-(2-fluoroethyl)-6-methylpicolinamide] it is 4.97 nM.
